For 17 compounds, IC50 results are on record in patent US10899764B2, “Imidazo isoindole derivative, preparation method therefor and medical use thereof” (Jiangsu Hengrui Medicine Co., Ltd., priority 2015, dated 2021).

The term IC50 denotes the concentration at which inhibition is half-maximal.

Each structure is given as a SMILES string. Counter-ions that a name gives are not always drawn. Like-named read-outs stand apart in the source and are kept apart here.

For one test, the target named is human IDO1 (Homo sapiens (Human), UniProt P14902). Kind of test: Inhibition activity on human IDO1 (enzyme assay, absorbance at 480 nm). Conditions: read-out: IC50 for inhibiting the activity of human IDO1. In kind it is biochemical. The procedure:
Assay for Determining the Inhibition Activity of the Present Compounds on Human IDO1
Human IDO1 activity was tested in vitro by the following method.
This method is used to determine the inhibition effect of the compounds of the present invention on the activity of human IDO1.
The human IDO1 gene was transferred to Pet30a plasmid by gene cloning, and then transferred to competent Escherichia coli Rosseta. The IDO1 gene was scaled-up by culturing in liquid LB (Luria-Bertani) medium [which was prepared per liter according to “Molecular Cloning A Laboratory Manual” (J. Sambrook, D. W. Russell)]). The bacteria were collected and lysed by ultrasonic waves. The purified IDO1 was obtained by eluting from a column.
For testing, 24 μL of enzyme (IDO1) was diluted 100 times with 50 mM KPB to 2400 μL. The concentration of the enzyme solution was 2.6 ng/μL. A 96 well reaction plate (AXYGEN, PCR-96-FLT-C) (hereinafter referred to as the “reaction plate”) was added with the enzyme solution at 24 μL/well. The blank well was added with 24 μL of KPB [Preparation of KPB buffer (50 mM): 6.805 g of KH2PO4 was weighed using an analytical balance, and placed into a 1000 mL beaker, deionized water was added with a measuring cylinder to 900 ml, the pH was adjusted to 6.5 by 1M KOH, then the mixture was introduced into a 1 L measuring cylinder, and water was added to 1 L. It was stored at 4° C.]. Then, 1 μL of a compound or DMSO was added into the corresponding wells in the reaction plate. Preparation of solution A: 200 μL of 500 mM L-sodium ascorbate were added with 1050 μL of KPB, then the mixture was mixed uniformly for 3 seconds at the maximum speed in a turbine mixer. Solution B: 100 μL of 10 mM tryptophan were added with 100 μL of 100,000 unit/mL catalase, 5 μL of 10 mM methylene blue, and 1050 μL of KPB successively, then the mixture was mixed uniformly for 3 seconds at the maximum speed in a turbine mixer. Then, 1200 μL of solution A and 1200 μL of solution B were taken and mixed uniformly for 3 seconds at the maximum speed in a turbine mixer. The mixture was added to the reaction plate at 24 μL/well. The reaction plate was placed in a plate centrifuge and centrifuged for 15 seconds at the maximum speed, so that the reaction liquids converged to the bottom. The reaction mixture was mixed uniformly for 30 seconds on a shaker, and incubated for 1 hour at 37° C. in a constant temperature incubator. In the reaction plate, 30% (W/V) trichloroacetic acid was added at 10 μL/well, then the mixture was incubated for 15 minutes at 65° C. in an incubator. The reaction plate was centrifuged in a centrifuge for 5 minutes at 4700 RPM at room temperature. […] Then, 2% (W/V) 4-(dimethylamino)benzaldehyde/glacial acetic acid solution was added at 40 μL/well, and the mixture was mixed uniformly for 1 minute on a shaker at the maximum speed. After incubation for 2 minutes at room temperature, the absorbance at 480 nm was read on a Synergy HT (BIOTEK) reader.
The inhibition activity of the compounds of the present invention on human IDO1 was tested by the assay described above.

The next test has as its target IDO in HeLa cells (Homo sapiens (Human), UniProt P14902). Briefly: Inhibition activity on IDO in HeLa cells (INF-γ induced). In kind it is cell-based. Conditions: HeLa cells, INF-γ and tryptophan, 48 hours; read-out: IC50 for inhibiting the activity of IDO in HeLa cells. How it is done:
Assay for Determining the Inhibition Activity of the Present Compounds on IDO in HeLa Cells
IDO activity in HeLa cells was tested in vitro by the following method.
This method is used to determine the inhibition effect of the compounds of the present invention on the activity of IDO in HeLa cells. (Note: indoleamine 2,3-dioxygenase (IDO) is expressed in the HeLa cell line and induced by interferon gamma (INF-γ)).
The supernatant was removed, serum-free DMEM high glucose medium was added at 90 μL/well, then the compounds contained in the culture medium with INF-γ and tryptophan were added at 10 μL/well (the final concentrations: 10000, 1000, 100, 10, 1, 0.1 nM). […] Then, 80 μL of the supernate was transferred from the 96-well cell culture plate to a 96 well round-bottomed plate, then 30% (W/V) trichloroacetic acid was added at 16 μL/well, then the mixture was incubated for 25 minutes at 65° C. in an incubator. The reaction plate was centrifuged in a centrifuge for 5 minutes at 4700 RPM. Then, 50 μL of the supernatant was transferred from the reaction plate to a 96-well flat-bottomed transparent plate by a multi-channel pipette. Then, 2% (W/V) 4-(dimethylamino)benzaldehyde/glacial acetic acid solution was added at 50 μL/well, then the mixture was mixed uniformly for 1 minute on a shaker. After incubation for 2 minutes at room temperature, the absorbance at 480 nm was read on a Synergy HT Reader.
The inhibition activity of the compounds of the present invention on IDO in HeLa cells was tested by the assay described above.

Setting [1] is: purified recombinant human IDO1, 1 hour at 37° C.

IDO in HeLa cells, sequence (P14902 whole entry): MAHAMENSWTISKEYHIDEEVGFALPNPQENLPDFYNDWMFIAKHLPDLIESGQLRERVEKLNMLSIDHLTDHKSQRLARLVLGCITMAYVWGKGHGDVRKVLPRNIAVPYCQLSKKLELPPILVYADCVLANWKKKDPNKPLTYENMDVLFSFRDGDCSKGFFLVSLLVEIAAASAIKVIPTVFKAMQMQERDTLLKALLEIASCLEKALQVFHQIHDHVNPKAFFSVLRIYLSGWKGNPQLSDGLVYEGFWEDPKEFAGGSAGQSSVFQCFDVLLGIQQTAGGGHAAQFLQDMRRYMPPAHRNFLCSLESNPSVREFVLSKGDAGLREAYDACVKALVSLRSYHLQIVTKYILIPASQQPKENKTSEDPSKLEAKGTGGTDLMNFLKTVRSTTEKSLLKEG
human IDO1, sequence (P14902 whole entry): as above

As to `COc1ccc(N2CCC(C3c4c(F)cccc4-c4cncn43)CC2)cc1` (stereo not shown) [Example 4, 6-fluoro-5-(1-(4-methoxyphenyl)piperidin-4-yl)-5H-imidazo[5,1-a]isoindole trifluoroacetate], the values for the half-maximal inhibitory concentration (IC50) on human IDO1 (setting [1]) and on IDO in HeLa cells were 96.2 nM and 188 nM, respectively.

Take `Cn1cc(-c2cccc(N3CCC(C4c5c(F)cccc5-c5cncn54)CC3)c2)cn1` (stereo not shown) [Example 8, 6-fluoro-5-(1-(3-(1-methyl-1H-pyrazol-4-yl)phenyl)piperidin-4-yl)-5H-imidazo[5,1-a]isoindole]: the results for the IC50 at human IDO1 (setting [1]) and on IDO in HeLa cells were 78.8 nM and 253 nM, respectively.

`O=C(NC1CCOCC1)c1ccc(N2CCC(C3c4c(F)cccc4-c4cncn43)CC2)cc1` (stereo not shown) [Example 11, 4-(4-(6-fluoro-5H-imidazo[5,1-a]isoindol-5-yl)piperidin-1-yl)-N-(tetrahydro-2H-pyran-4-yl)benzamide trifluoroacetate]: the figures for the IC50 at human IDO1 (setting [1]) and on IDO in HeLa cells were 73.2 nM and 477 nM, respectively.

Consider `CC(=O)Nc1cccc(N2CCC(C3c4c(F)cccc4-c4cncn43)CC2)c1` (stereo not shown) [Example 12, N-(3-(4-(6-fluoro-5H-imidazo[5,1-a]isoindol-5-yl)piperidin-1-yl)phenyl)acetamide trifluoroacetate], for which the IC50 came to 68.7 nM at human IDO1 (setting [1]) and 70.6 nM on IDO in HeLa cells.

For the compound `Fc1cccc2c1C(C1CCN(c3ccccn3)CC1)n1cncc1-2` (stereo not shown) [Example 15, 6-fluoro-5-(1-(pyridin-2-yl)piperidin-4-yl)-5H-imidazo[5,1-a]isoindole trifluoroacetate], the concentration for half-maximal inhibition (IC50) at IDO in HeLa cells turned out to be 199 nM.

For `Fc1cccc2c1C(C1CCN(c3ncccn3)CC1)n1cncc1-2` (stereo not shown) [Example 16, 6-fluoro-5-(1-(pyrimidin-2-yl)piperidin-4-yl)-5H-imidazo[5,1-a]isoindole trifluoroacetate], the half-inhibitory concentration (IC50) at IDO in HeLa cells was determined as 260 nM.

With `O=C(Nc1ccccc1)N1CCC(C2c3c(F)cccc3-c3cncn32)CC1` (stereo not shown) [Example 21, 4-(6-fluoro-5H-imidazo[5,1-a]isoindol-5-yl)-N-phenylpiperidine-1-carboxamide trifluoroacetate], the IC50 on IDO in HeLa cells came out at 477 nM.

For `N#Cc1ccc(NC(=O)N2CCC(C3c4c(F)cccc4-c4cncn43)CC2)cc1` (stereo not shown) [Example 22, N-(4-cyanophenyl)-4-(6-fluoro-5H-imidazo[5,1-a]isoindol-5-yl)piperidine-1-carboxamide trifluoroacetate], the IC50 on human IDO1 (setting [1]) amounted to 56.9 nM; at IDO in HeLa cells it was 130 nM.

As to `CS(=O)(=O)N1CCC(n2cc(-c3ccc(N4CCC(C5c6c(F)cccc6-c6cncn65)CC4)cc3)cn2)CC1` (stereo not shown) [Example 31, 6-fluoro-5-(1-(4-(1-(1-(methylsulfonyl)piperidin-4-yl)-1H-pyrazol-4-yl)phenyl)piperidin-4-yl)-5H-imidazo[5,1-a]isoindole trifluoroacetate], the IC50 at human IDO1 came out at 14.2 nM.

For the compound `Fc1cccc2c1C(C1CCN(c3ccc(-c4cnn([C@@H]5CCOC5)c4)cc3)CC1)n1cncc1-2` (stereo partly drawn) [Example 32, 6-fluoro-5-(1-(4-(1-((R)-tetrahydrofuran-3-yl)-1H-pyrazol-4-yl)phenyl)piperidin-4-yl)-5H-imidazo[5,1-a]isoindole trifluoroacetate], the IC50 was determined as 33 nM on human IDO1 and 225 nM at IDO in HeLa cells.

Regarding `COc1cccc(NC(=O)C2CCC([C@@H]3c4c(F)cccc4-c4cncn43)CC2)c1` (stereo partly drawn) [Example 33, (1S,4S)-4-((R)-6-fluoro-5H-imidazo[5,1-a]isoindol-5-yl)-N-(3-methoxyphenyl)cyclohexanecarboxamide], at IDO in HeLa cells, the 50% inhibitory concentration (IC50) came to 47.2 nM.

With `CS(=O)(=O)N1CCCC(Oc2cnc(N3CCC(C4c5c(F)cccc5-c5cncn54)CC3)nc2)C1` (stereo not shown) [Example 37, 6-fluoro-5-(1-(5-((1-(methylsulfonyl)piperidin-3-yl)oxy)pyrimidin-2-yl)piperidin-4-yl)-5H-imidazo[5,1-a]isoindole trifluoroacetate], the figures for the IC50 on human IDO1 (setting [1]) and on IDO in HeLa cells were 17.8 nM and 114 nM, respectively.

Take `Fc1cccc2c1C(C1CCN(c3ccc(OC4CCOC4)cc3)CC1)n1cncc1-2` (stereo not shown) [Example 38, 6-fluoro-5-(1-(4-((tetrahydrofuran-3-yl)oxy)phenyl)piperidin-4-yl)-5H-imidazo[5,1-a]isoindole]: the half-inhibitory concentration (IC50) at human IDO1 (setting [1]) stood at 28.1 nM; at IDO in HeLa cells it was 151 nM.

Take `COCCn1cc(-c2ccc(N3CCC(C4c5c(F)cccc5-c5cncn54)CC3)cc2)cn1` (stereo not shown) [Example 42, 6-fluoro-5-(1-(4-(1-(2-methoxyethyl)-1H-pyrazol-4-yl)phenyl)piperidin-4-yl)-5H-imidazo[5,1-a]isoindole trifluoroacetate]: the IC50 at human IDO1 turned out to be 36.3 nM; on IDO in HeLa cells it was 254 nM.

Consider `CC(=O)NCCn1cc(-c2ccc(N3CCC(C4c5c(F)cccc5-c5cncn54)CC3)cc2)cn1` (stereo not shown) [Example 43, N-(2-(4-(4-(4-(6-fluoro-5H-imidazo[5,1-a]isoindol-5-yl)piperidin-1-yl)phenyl)-1H-pyrazol-1-yl)ethyl)acetamide trifluoroacetate], for which the half-maximal inhibitory concentration (IC50) came to 63.3 nM on human IDO1 and 171 nM at IDO in HeLa cells.

In the case of `Fc1cccc2c1C(C1CCN(c3ccc(-c4cnn(C5CCOC5)c4)cc3)CC1)n1cncc1-2` [Example 44, 6-fluoro-5-(1-(4-(1-((R)-tetrahydrofuran-3-yl)-1H-pyrazol-4-yl)phenyl)piperidin-4-yl)-5H-imidazo[5,1-a]isoindole trifluoroacetate], the half-inhibitory concentration (IC50) at human IDO1 was found to be 16.6 nM; on IDO in HeLa cells, 175 nM.

As for `Fc1cccc2c1C(C1CCN(c3ccc(Cl)cn3)CC1)n1cncc1-2` (stereo not shown) [Example 47, 5-(1-(5-chloropyridin-2-yl)piperidin-4-yl)-6-fluoro-5H-imidazo[5,1-a]isoindole], the IC50 at IDO in HeLa cells came out at 88.3 nM.
